Measurements as given in ChEMBL document CHEMBL1255172, “Discovery and structure-activity relationship of a novel spirocarbamate series of NPY Y5 antagonists” (Bioorg Med Chem Lett, 2010).

Assays:
[1] = target: T1, Neuropeptide Y receptor type 5 (Homo sapiens, UniProt Q15761); assay: Antagonist activity at human NPY Y5 receptor; format: functional
T1 sequence (Q15761 whole entry): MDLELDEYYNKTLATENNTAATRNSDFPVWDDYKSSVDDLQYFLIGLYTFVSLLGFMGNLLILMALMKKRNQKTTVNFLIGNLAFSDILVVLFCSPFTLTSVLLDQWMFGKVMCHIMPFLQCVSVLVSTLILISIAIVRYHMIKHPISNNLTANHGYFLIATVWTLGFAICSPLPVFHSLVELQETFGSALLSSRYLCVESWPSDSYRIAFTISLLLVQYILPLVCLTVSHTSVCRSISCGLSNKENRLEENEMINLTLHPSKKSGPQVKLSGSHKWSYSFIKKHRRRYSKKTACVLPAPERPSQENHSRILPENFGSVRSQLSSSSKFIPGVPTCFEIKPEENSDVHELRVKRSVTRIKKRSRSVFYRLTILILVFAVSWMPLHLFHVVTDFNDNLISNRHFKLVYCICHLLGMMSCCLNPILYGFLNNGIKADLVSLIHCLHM

Cytochrome P450 1A2 = target: T2, Cytochrome P450 1A2 (Homo sapiens, UniProt P05177); assay: Inhibition of CYP1A2; format: ADME
T2 sequence (P05177 whole entry): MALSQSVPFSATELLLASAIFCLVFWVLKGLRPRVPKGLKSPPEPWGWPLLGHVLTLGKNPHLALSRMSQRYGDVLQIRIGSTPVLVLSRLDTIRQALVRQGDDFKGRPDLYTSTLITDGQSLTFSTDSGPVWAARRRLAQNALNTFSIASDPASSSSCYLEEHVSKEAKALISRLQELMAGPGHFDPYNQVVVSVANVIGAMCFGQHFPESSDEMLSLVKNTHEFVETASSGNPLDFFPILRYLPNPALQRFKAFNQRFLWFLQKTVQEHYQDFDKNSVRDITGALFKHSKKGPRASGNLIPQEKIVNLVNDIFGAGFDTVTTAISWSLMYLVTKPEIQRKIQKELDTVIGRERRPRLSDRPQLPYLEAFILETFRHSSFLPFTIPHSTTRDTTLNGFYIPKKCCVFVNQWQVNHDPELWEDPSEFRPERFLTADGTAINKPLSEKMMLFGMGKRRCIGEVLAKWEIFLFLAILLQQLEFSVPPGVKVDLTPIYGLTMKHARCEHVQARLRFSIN

Cytochrome P450 2C9 = Cytochrome P450 2C9 (Homo sapiens, UniProt P11712); assay: Inhibition of CYP2C9; format: ADME
Cytochrome P450 2D6 = Cytochrome P450 2D6 (Homo sapiens, UniProt P10635); assay: Inhibition of CYP2D6; format: ADME
Cytochrome P450 3A4 = Cytochrome P450 3A4 (Homo sapiens, UniProt P08684); assay: Inhibition of CYP3A4; format: ADME
[2] = Protein binding in rat brain assessed as unbound fraction; format: ADME, tissue-based; settings: brain tissue
Cytochrome P450 2C19 = Cytochrome P450 2C19 (Homo sapiens, UniProt P33261); assay: Inhibition of CYP2C19; format: ADME
[3] = Clearance in rat blood at 0.5 mg/kg, iv and 1 mg/kg, po; format: ADME, organism-based; settings: whole blood
[4] = Oral bioavailability in rat at 1 mg/kg; format: ADME, organism-based; settings: in vivo
[5] = Ratio of drug uptake from blood to brain in rat; format: ADME, tissue-based; settings: brain and blood
Liver microsomes [6] = assay: Intrinsic clearance in rat liver microsome; format: ADME
Liver microsomes [7] = assay: Intrinsic clearance in human liver microsome; format: ADME
Rattus norvegicus = assay: In vivo antagonist activity at NPY Y5 receptor in orally dosed rat assessed as reduction in food intake; settings: oral, read-out: MED

Chain of Cytochrome P450 2D6 (P10635 whole entry): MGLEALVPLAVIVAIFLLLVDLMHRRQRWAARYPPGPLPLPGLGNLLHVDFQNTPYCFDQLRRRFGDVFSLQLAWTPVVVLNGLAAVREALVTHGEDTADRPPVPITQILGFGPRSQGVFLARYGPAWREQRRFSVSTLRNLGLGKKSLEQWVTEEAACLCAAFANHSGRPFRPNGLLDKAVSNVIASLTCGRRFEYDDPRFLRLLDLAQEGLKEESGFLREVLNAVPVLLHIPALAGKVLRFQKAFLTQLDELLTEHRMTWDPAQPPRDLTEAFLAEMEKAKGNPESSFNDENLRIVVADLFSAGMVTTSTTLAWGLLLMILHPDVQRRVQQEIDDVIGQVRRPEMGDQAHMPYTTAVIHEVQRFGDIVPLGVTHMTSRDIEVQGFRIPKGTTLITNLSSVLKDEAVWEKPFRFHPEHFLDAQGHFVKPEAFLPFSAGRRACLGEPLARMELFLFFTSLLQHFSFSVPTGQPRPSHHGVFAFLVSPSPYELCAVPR
Chain of Cytochrome P450 2C19 (P33261 whole entry): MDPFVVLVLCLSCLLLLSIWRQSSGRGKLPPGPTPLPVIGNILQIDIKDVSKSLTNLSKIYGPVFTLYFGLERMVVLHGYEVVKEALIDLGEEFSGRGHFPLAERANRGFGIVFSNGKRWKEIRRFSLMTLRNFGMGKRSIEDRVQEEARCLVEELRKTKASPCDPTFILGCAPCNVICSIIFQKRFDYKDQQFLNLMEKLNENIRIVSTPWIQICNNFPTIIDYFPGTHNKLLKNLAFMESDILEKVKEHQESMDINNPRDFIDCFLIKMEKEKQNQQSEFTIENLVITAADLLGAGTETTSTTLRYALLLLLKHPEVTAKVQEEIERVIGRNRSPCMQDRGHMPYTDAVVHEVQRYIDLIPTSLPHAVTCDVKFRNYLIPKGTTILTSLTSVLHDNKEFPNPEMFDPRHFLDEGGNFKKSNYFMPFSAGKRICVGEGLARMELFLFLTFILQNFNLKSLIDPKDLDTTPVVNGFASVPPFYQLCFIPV
Chain of Cytochrome P450 2C9 (P11712 whole entry): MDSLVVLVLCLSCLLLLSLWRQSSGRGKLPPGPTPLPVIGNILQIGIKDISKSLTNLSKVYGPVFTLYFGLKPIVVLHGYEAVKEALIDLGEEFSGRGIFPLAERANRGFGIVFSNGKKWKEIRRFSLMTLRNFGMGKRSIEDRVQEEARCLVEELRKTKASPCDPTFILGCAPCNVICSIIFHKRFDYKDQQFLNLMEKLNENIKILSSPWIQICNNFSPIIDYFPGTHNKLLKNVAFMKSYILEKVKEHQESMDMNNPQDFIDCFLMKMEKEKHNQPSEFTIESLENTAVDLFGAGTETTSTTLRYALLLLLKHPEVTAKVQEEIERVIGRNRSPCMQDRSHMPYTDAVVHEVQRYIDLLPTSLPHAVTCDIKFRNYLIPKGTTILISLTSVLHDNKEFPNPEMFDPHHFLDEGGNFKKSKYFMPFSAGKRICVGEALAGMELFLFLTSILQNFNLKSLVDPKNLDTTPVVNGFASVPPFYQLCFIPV
Chain of Cytochrome P450 3A4 (P08684 whole entry): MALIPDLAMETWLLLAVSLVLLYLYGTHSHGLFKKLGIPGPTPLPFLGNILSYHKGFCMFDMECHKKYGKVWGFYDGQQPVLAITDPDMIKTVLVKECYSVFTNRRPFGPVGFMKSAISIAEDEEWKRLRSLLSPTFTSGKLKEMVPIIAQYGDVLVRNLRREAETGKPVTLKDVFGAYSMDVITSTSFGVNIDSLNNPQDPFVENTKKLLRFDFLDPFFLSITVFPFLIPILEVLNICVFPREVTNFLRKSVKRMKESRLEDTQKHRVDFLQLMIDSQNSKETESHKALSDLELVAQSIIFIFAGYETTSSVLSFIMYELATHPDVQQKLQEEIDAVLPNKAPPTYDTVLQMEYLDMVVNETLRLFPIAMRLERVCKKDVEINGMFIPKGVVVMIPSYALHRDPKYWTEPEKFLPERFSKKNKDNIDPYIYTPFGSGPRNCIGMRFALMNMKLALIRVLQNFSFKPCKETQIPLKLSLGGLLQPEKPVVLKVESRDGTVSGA

Row | Compound | Ki [1] [nM] | INH (Cytochrome P450 1A2) [µM] | INH (Cytochrome P450 2C9) [µM] | INH (Cytochrome P450 2D6) [µM] | INH (Cytochrome P450 3A4) [µM] | fraction unbound [2] | INH (Cytochrome P450 2C19) [µM] | clearance [3] [mL/min/kg] | bioavailability [4] [%] | Kp [5] | CL (Liver microsomes [6]) [mL/min/g] | CL (Liver microsomes [7]) [mL/min/g] | clearance (Liver microsomes [6]) [mL/min/g] | clearance (Liver microsomes [7]) [mL/min/g] | minimal effective dose (Rattus norvegicus) [mg/kg]
1 | Cc1nnc(N2C[C@]3(CC[C@@H](CNc4cnn(-c5ccccc5F)c4)CC3)OC2=O)s1 | 0.2 | > 10 | > 10 | > 10 | 6 | 0.026 | > 10 | – | – | – | – | – | – | – | –
2 | O=C1O[C@]2(CC[C@H](CNc3ccc(-c4nccs4)cn3)CC2)CN1c1ccccn1 | 0.126 | > 10 | 0.3 | 1 | 7 | – | 3 | – | – | – | – | – | – | – | –
3 | O=C1O[C@]2(CC[C@H](CNc3ccc(-c4ncccn4)cn3)CC2)CN1c1ccccn1 | 0.158 | > 10 | 5 | > 10 | > 10 | 0.035 | 10 | – | – | – | – | – | – | – | –
4 | O=C1O[C@]2(CC[C@H](CNc3ccc(C(F)(F)F)cn3)CC2)CN1c1ccccn1 | 1 | > 10 | 2 | > 10 | > 10 | 0.005 | 5 | – | – | – | – | – | – | – | –
5 | O=C1O[C@]2(CC[C@H](CNc3ccc(-c4ncccn4)cn3)CC2)CN1c1cccnn1 | 1.58 | > 10 | > 10 | > 10 | – | – | > 10 | – | – | – | – | – | – | – | –
6 | O=C1O[C@]2(CC[C@H](CNc3cnn(-c4ccccc4F)c3)CC2)CN1c1cccnc1 | 0.1 | > 10 | 7 | > 10 | 1 | 0.025 | 8 | – | – | – | – | – | – | – | –
7 | Cc1ccccc1-c1ccc(NC[C@H]2CC[C@]3(CC2)CN(c2cccnn2)C(=O)O3)nn1 | 0.0631 | > 10 | > 10 | > 10 | > 10 | 0.051 | > 10 | – | – | – | – | – | – | – | –
8 | O=C1O[C@]2(CC[C@H](CNc3ccn(-c4ccccc4F)n3)CC2)CN1c1ccccn1 | 0.0316 | > 10 | 2 | > 10 | > 10 | – | 4 | – | – | – | – | – | – | – | –
9 | FC(F)(F)c1ccc(Nc2nc(-c3ccccn3)cs2)cc1 | – | < 0.1 | < 0.1 | < 0.1 | < 0.1 | – | < 0.1 | 27 | – | – | – | – | – | – | –
10 | O=C1O[C@]2(CC[C@H](CNc3nc(-c4ccccn4)cs3)CC2)CN1c1ccccn1 | 0.0794 | > 10 | 6 | > 10 | 3 | 0.01 | 3 | 30 | 35 | 0.7 | 3.1 | 4 | – | – | 10
11 | Cc1ncccc1N1C[C@]2(CC[C@@H](CNc3cnn(-c4ccccc4F)c3)CC2)OC1=O | 0.631 | > 10 | > 10 | > 10 | > 10 | – | – | – | – | – | – | – | – | – | –

Now from value to compound, other results behind:

Row | Ki [1] [nM] | INH (Cytochrome P450 1A2) [µM] | INH (Cytochrome P450 2C9) [µM] | INH (Cytochrome P450 2D6) [µM] | INH (Cytochrome P450 3A4) [µM] | fraction unbound [2] | INH (Cytochrome P450 2C19) [µM] | clearance [3] [mL/min/kg] | bioavailability [4] [%] | Kp [5] | CL (Liver microsomes [6]) [mL/min/g] | CL (Liver microsomes [7]) [mL/min/g] | clearance (Liver microsomes [6]) [mL/min/g] | clearance (Liver microsomes [7]) [mL/min/g] | Compound | minimal effective dose (Rattus norvegicus) [mg/kg]
12 | 0.316 | 6 | 1 | > 10 | 5 | < 0.01 | 4 | – | – | – | – | – | – | – | O=C1O[C@]2(CC[C@H](CNc3ncc(-c4ccccc4F)cn3)CC2)CN1c1ccccn1 | –
13 | 0.1 | > 10 | 8 | > 10 | > 10 | 0.016 | – | 41 | 75 | 1.6 | < 0.5 | < 0.5 | – | – | O=C1O[C@]2(CC[C@H](CNc3ccc(-c4cc(F)cc(F)c4)nn3)CC2)CN1c1cccnn1 | 3
14 | 0.1 | > 10 | 6 | > 10 | 5 | 0.019 | 8 | – | – | – | – | – | – | – | O=C1O[C@]2(CC[C@H](CNc3cnn(-c4ccccc4F)c3)CC2)CN1c1cccnc1F | –
15 | 0.2 | > 10 | > 10 | > 10 | 6 | 0.044 | > 10 | – | – | – | – | – | – | – | O=C1O[C@]2(CC[C@H](CNc3cnn(-c4ccccc4F)c3)CC2)CN1c1ccnnc1 | –
16 | 0.0251 | > 10 | 0.3 | > 10 | > 10 | 0.002 | 2 | – | – | – | – | – | – | – | O=C1O[C@]2(CC[C@H](CNc3cnc(-c4ccccc4F)cn3)CC2)CN1c1ccccn1 | –
17 | 5.01 | – | 1 | 2 | 9 | – | 9 | – | – | – | – | – | – | – | O=C1O[C@]2(CC[C@H](CNc3ccc(-c4ccccc4F)nc3)CC2)CN1c1ccccn1 | –
18 | 0.1 | > 10 | > 10 | > 10 | > 10 | 0.031 | – | 13 | 52 | 0.9 | < 0.5 | < 0.5 | – | – | O=C1O[C@]2(CC[C@H](CNc3cnn(-c4ccccc4F)c3)CC2)CN1c1cccnn1 | 3
19 | 0.158 | > 10 | > 10 | > 10 | > 10 | 0.046 | > 10 | 18 | 90 | 0.25 | < 0.5 | < 0.5 | – | – | O=C1O[C@]2(CC[C@H](CNc3ccc(-c4ccccc4F)nn3)CC2)CN1c1cccnn1 | –
20 | 0.251 | > 10 | > 10 | > 10 | > 10 | 0.056 | > 10 | – | – | – | – | – | – | – | Cc1cccc(-c2ccc(NC[C@H]3CC[C@]4(CC3)CN(c3cccnn3)C(=O)O4)nc2)n1 | –
21 | 0.0631 | 5 | 1 | 2 | > 10 | 0.016 | 2 | – | – | – | – | – | – | – | O=C1O[C@]2(CC[C@H](CNc3ccc(-c4ccccc4F)nn3)CC2)CN1c1ccccn1 | –
22 | 0.316 | > 10 | > 10 | > 10 | > 10 | 0.052 | > 10 | 70 | 50 | 0.4 | – | – | – | – | O=C1O[C@]2(CC[C@H](CNc3ccc(-c4ncccc4F)cn3)CC2)CN1c1cccnn1 | –
23 | 0.158 | > 10 | 2 | 2 | 3 | – | 7 | – | – | – | – | – | – | – | O=C1O[C@]2(CC[C@H](CNc3ccc(OC4CCC4)cn3)CC2)CN1c1ccccn1 | –
24 | 0.0398 | > 10 | > 10 | > 10 | 2 | 0.044 | 6 | – | – | – | – | – | – | – | O=C1O[C@]2(CC[C@H](CNc3cnn(-c4ccccc4F)c3)CC2)CN1c1cncnc1 | –
25 | – | > 10 | > 10 | > 10 | > 10 | – | > 10 | – | – | – | – | – | 0.5 | 0.6 | O=C(Nc1nc(-c2ccccn2)cs1)N1CCC2(CC1)CN(c1ccccc1)C(=O)O2 | –
26 | 0.0631 | > 10 | 3 | 2 | 0.6 | 0.017 | 2 | – | – | – | – | – | – | – | O=C1O[C@]2(CC[C@H](CNc3cnn(-c4ccccc4F)c3)CC2)CN1c1cnccn1 | –
